Measurements published in article PMC4864329, “In vitro and in vivo efficacy, toxicity, bio-distribution and resistance selection of a novel antibacterial drug candidate” (Scientific Reports, 2016).
Several values for one entry are separate records, joined by “and”; a condition that tells them apart may be missing. Identical values can stand only once. Like-named read-outs stand apart in the source and are kept apart here.

Key:
[1] = system: Klebsiella pneumoniae clinical isolates; type: cell-based
Procedure: Minimum inhibitory concentrations (MICs) of SET-M33L were determined against 76 clinical isolates of Pseudomonas aeruginosa and 73 clinical isolates of Klebsiella pneumoniae. The isolates were selected on the basis of their resistance phenotypes and major antibiotic resistance determinants, including resistance to colistin and carriage of carbapenemase-encoding genes (Table 1 and supplemental Tables S1 and S2).
MIC values were determined against a large collection of clinical isolates. Most isolates were collected during routine susceptibility testing procedures at the Clinical Microbiology Unit of Careggi University Hospital in Florence, while specific isolates were selected according to their phenotype or genotype (e.g. carriage of carbapenemase-encoding genes, inclusion in epidemic bacterial clones, resistance to colistin) from a collection of isolates already available at Department of Medical Biotechnologies, University of Siena. Detailed features of each strain, including relevant resistance phenotypes and genotypes were reported in supplemental Tables S1 and S2. MICs were determined in triplicate using a standard microdilution assay according to the guidelines of the Clinical and Laboratory Standards Institute[34]. SET-M33L was assayed using concentrations in the range 0.09–11.2 μM (0.5–64 μg/mL); testing was performed using a bacterial inoculum of 5 × 10^4 CFU/well prepared in cation-supplemented Mueller-Hinton broth (MHB) (Becton Dickinson, Franklin Lakes, NJ, USA) in a final volume of 100 μl. Results were recorded after 18–20 h of incubation at 35 °C.

[2] = system: K. pneumoniae strain KKBO-1; assay: In vitro selection of resistant mutants on peptide-containing MHB agarose; type: cell-based, Klebsiella pneumoniae; settings: KKBO-1, same experimental conditions
Procedure: Tests were performed by plating cells on SET-M33L- or colistin-containing MHB.
Selection was performed on an MHB-based selection medium containing 1% low electro-osmosis agarose as solidifying agent and 11.2 μM SET-M33L (64 μg/mL). Agarose was preferred to agar as solidifying agent due to the observed loss of antimicrobial activity of SET-M33L in selection media solidified with the latter, possibly due to the charged nature of agar. Klebsiella pneumoniae KKBO-1 strain was grown in MHB at 37 °C to OD600 0.35 and up to 5 × 10^9 colony forming units (CFU) were spread on Petri dishes containing 20 ml of the selection medium. Plates were incubated for 16–18 h at 37 °C. Colistin-containing selection medium (equimolar concentration with respect to SET-M33L) was used as control for the selection of colistin-resistant mutants. Experiments were performed in triplicate.

BALB/c mice = assay: Acute toxicity in mice, single i.v. dose; type: in vivo, mouse; settings: for mortality: single i.v. dose 10 mg/Kg
Procedure: As preliminary toxicity evaluation we first compared the acute toxicity of SET-M33L and SET-M33L-PEG with that of colistin. Animals (10 BALB/c mice/group) were injected i.v. with different amounts of SET-M33L, SET-M33L-PEG or colistin, in single dose, in the range 5–40 mg/kg (Fig. 4), and were monitored for 4 days after inoculation of the peptide. […] At 40 mg/Kg SET-M33L and SET-M33L-PEG produced similar toxicity profiles with strong signs of toxicity and 90–100% mortality after 96 hours. Colistin produced strong signs of toxicity already at 10 mg/Kg: 50% mortality immediately after inoculation and 70% mortality after 24 hours. Colistin induced sudden death in 100% of mice at 20 and 40 mg/Kg.
Mice were treated by a single i.v. administration of different amounts (40, 20, 10, 5 mg/Kg) of SET-M33L, SET-M33L-PEG or colistin sulfate (Sigma-Aldrich, C4461). Signs of toxicity were checked four times a day by visual inspection. A toxicity score was assigned for the following signs: wiry coat and poor motility = mild signs; very wiry coat, abundant lachrymation and poor motility even under stimulation = manifest signs. Animals were monitored for 4 days after inoculation of the peptide. Mice were weighed every day from arrival to the last day of the experiment. Moribund animals were killed humanely to avoid unnecessary distress.

colistin sulfate gave an MIC ([1]; isolate SI_K1, CARB, β/I, ESC, FQ, AG, COL, blaNDM) of 32 µg/mL, an MIC ([1]; isolate SI_K2, CARB, ESC, FQ, AG, blaCTX-M) of at most 0.5 µg/mL and an MIC ([1]; isolate SI_K3, CARB, β/I, ESC, AG, blaVIM) of 0.5 µg/mL. For the same substance, the MIC ([1]; isolate SI_K4, CARB, β/I, ESC, FQ, blaOXA-48) was 0.5 µg/mL, the MIC ([1]; isolate SI_K5, CARB, β/I, ESC, FQ, blaOXA-48) was 0.5 µg/mL and the MIC ([1]; isolate SI_K6, CARB, β/I, ESC, FQ, AG, blaKPC) was 0.5 µg/mL. The MIC ([1]; isolate SI_K7, CARB, β/I, ESC, FQ, blaKPC) was 0.5 µg/mL, the MIC ([1]; isolate SI_K8, CARB, β/I, ESC, FQ, AG, blaKPC) was at most 0.5 µg/mL and the MIC ([1]; isolate SI_K9, CARB, β/I, ESC, FQ, AG, blaKPC) was 2 µg/mL. For the same substance, the MIC ([1]; isolate SI_K10, CARB, β/I, ESC, FQ, COL, blaKPC) was over 32 µg/mL, the MIC ([1]; isolate SI_K11, CARB, β/I, ESC, FQ, AG, blaKPC) was at most 0.5 µg/mL and the MIC ([1]; isolate SI_K12, phenotype none) was at most 0.5 µg/mL. For the same substance, the MIC ([1]; isolate SI_K13, β/I, ESC, FQ, AG, ESBL) was at most 0.5 µg/mL, the MIC ([1]; isolate SI_K14, phenotype none) was at most 0.5 µg/mL and the MIC ([1]; isolate SI_K15, phenotype none) was at most 0.5 µg/mL. The MIC ([1]; isolate SI_K16, phenotype none) was at most 0.5 µg/mL, the MIC ([1]; isolate SI_K17, CARB, β/I, ESC, FQ, AG, COL, blaKPC) was over 32 µg/mL and the MIC ([1]; isolate SI_K18, phenotype none) was at most 0.5 µg/mL. For the same substance, the MIC ([1]; isolate SI_K19, ESC, ESBL) was at most 0.5 µg/mL, the MIC ([1]; isolate SI_K20, phenotype none) was at most 0.5 µg/mL and the MIC ([1]; isolate SI_K21, phenotype none) was at most 0.5 µg/mL. The MIC ([1]; isolate SI_K22, phenotype none) was at most 0.5 µg/mL, the MIC ([1]; isolate SI_K23, phenotype none) was at most 0.5 µg/mL and the MIC ([1]; isolate SI_K24, phenotype none) was at most 0.5 µg/mL. It also gave an MIC ([1]; isolate SI_K25, phenotype none) of at most 0.5 µg/mL, an MIC ([1]; isolate SI_K26, phenotype none) of at most 0.5 µg/mL and an MIC ([1]; isolate SI_K27, phenotype none) of at most 0.5 µg/mL. For the same substance, the MIC ([1]; isolate SI_K28, β/I, ESC, FQ, AG, ESBL) was at most 0.5 µg/mL, the MIC ([1]; isolate SI_K29, ESC, AG, blaCTX-M) was 0.5 µg/mL and the MIC ([1]; isolate SI_K30, phenotype none) was at most 0.5 µg/mL. The MIC ([1]; isolate SI_K31, β/I, ESC, FQ, AG, COL, ESBL) was 16 µg/mL, the MIC ([1]; isolate SI_K32, phenotype none) was at most 0.5 µg/mL and the MIC ([1]; isolate SI_K33, phenotype none) was at most 0.5 µg/mL. For the same substance, the MIC ([1]; isolate SI_K34, phenotype none) was at most 0.5 µg/mL, the MIC ([1]; isolate SI_K35, CARB, β/I, ESC, FQ, AG, blaKPC) was at most 0.5 µg/mL and the MIC ([1]; isolate SI_K36, CARB, β/I, ESC, FQ, AG, COL, blaKPC) was over 32 µg/mL. The MIC ([1]; isolate SI_K37, phenotype none) was at most 0.5 µg/mL, the MIC ([1]; isolate SI_K38, phenotype none) was at most 0.5 µg/mL and the MIC ([1]; isolate SI_K39, phenotype none) was at most 0.5 µg/mL. The MIC ([1]; isolate SI_K40, CARB, β/I, ESC, FQ, AG, COL, blaKPC) was > 32 μg/mL and > 24 μM, the MIC ([1]; isolate SI_K41, β/I, ESC, FQ, AG, ESBL) was ≤ 0.5 μg/mL and ≤ 0.4 μM and the MIC ([1]; isolate SI_K42, phenotype none) was ≤ 0.5 μg/mL and ≤ 0.4 μM. The MIC ([1]; isolate SI_K43, phenotype none) was ≤ 0.5 μg/mL and ≤ 0.4 μM, the MIC ([1]; isolate SI_K44, phenotype none) was ≤ 0.4 μM and ≤ 0.5 μg/mL and the MIC ([1]; isolate SI_K45, FQ) was ≤ 0.5 μg/mL and ≤ 0.4 μM. The MIC ([1]; isolate SI_K46, β/I) was ≤ 0.5 μg/mL and ≤ 0.4 μM, the MIC ([1]; isolate SI_K47, phenotype none) was ≤ 0.5 μg/mL and ≤ 0.4 μM and the MIC ([1]; isolate SI_K48, phenotype none) was ≤ 0.5 μg/mL and ≤ 0.4 μM. The MIC ([1]; isolate SI_K49, phenotype none) was ≤ 0.5 μg/mL and ≤ 0.4 μM, the MIC ([1]; isolate SI_K50, phenotype none) was ≤ 0.5 μg/mL and ≤ 0.4 μM and the MIC ([1]; isolate SI_K51, phenotype none) was ≤ 0.5 μg/mL and ≤ 0.4 μM. For the same substance, the MIC ([1]; isolate SI_K52, phenotype none) was ≤ 0.5 μg/mL and ≤ 0.4 μM, the MIC ([1]; isolate SI_K53, β/I, ESC, FQ, ESBL) was ≤ 0.5 μg/mL and ≤ 0.4 μM and the MIC ([1]; isolate SI_K54, phenotype none) was ≤ 0.5 μg/mL and ≤ 0.4 μM. The MIC ([1]; isolate SI_K55, β/I, ESC, FQ, AG, ESBL) was ≤ 0.5 μg/mL and ≤ 0.4 μM, the MIC ([1]; isolate SI_K56, phenotype none) was ≤ 0.5 μg/mL and ≤ 0.4 μM and the MIC ([1]; isolate SI_K57, β/I, FQ) was ≤ 0.5 μg/mL and ≤ 0.4 μM. The MIC ([1]; isolate SI_K58, phenotype none) was ≤ 0.5 μg/mL and ≤ 0.4 μM, the MIC ([1]; isolate SI_K59, phenotype none) was ≤ 0.5 μg/mL and ≤ 0.4 μM and the MIC ([1]; isolate SI_K60, phenotype none) was ≤ 0.5 μg/mL and ≤ 0.4 μM. The MIC ([1]; isolate SI_K61, CARB, β/I, ESC, FQ) was ≤ 0.5 μg/mL and ≤ 0.4 μM, the MIC ([1]; isolate SI_K62, CARB, β/I, ESC, FQ, AG, ESBL) was ≤ 0.5 μg/mL and ≤ 0.4 μM and the MIC ([1]; isolate SI_K63, β/I, ESC, FQ, AG, ESBL) was ≤ 0.5 μg/mL and ≤ 0.4 μM. For the same substance, the MIC ([1]; isolate SI_K64, phenotype none) was ≤ 0.5 μg/mL and ≤ 0.4 μM, the MIC ([1]; isolate SI_K65, phenotype none) was ≤ 0.5 μg/mL and ≤ 0.4 μM and the MIC ([1]; isolate SI_K66, β/I, ESC, FQ, AG, ESBL) was ≤ 0.5 μg/mL and ≤ 0.4 μM. The MIC ([1]; isolate SI_K67, β/I, ESC, FQ, AG, ESBL) was ≤ 0.5 μg/mL and ≤ 0.4 μM, the MIC ([1]; isolate SI_K68, phenotype none) was ≤ 0.5 μg/mL and ≤ 0.4 μM and the MIC ([1]; isolate SI_K69, β/I, ESC, FQ, AG, ESBL) was ≤ 0.5 μg/mL and ≤ 0.4 μM. For the same substance, the MIC ([1]; isolate SI_K70, β/I, ESC, FQ) was ≤ 0.5 μg/mL and ≤ 0.4 μM, the MIC ([1]; isolate SI_K71, CARB, β/I, ESC, FQ, blaKPC) was ≤ 0.5 μg/mL and ≤ 0.4 μM and the MIC ([1]; isolate SI_K72, CARB, β/I, ESC, FQ, AG, COL, blaNDM) was > 32 μg/mL and > 24 μM. The MIC ([1]; isolate SI_K73, CARB, ESC, FQ, AG, blaCTX-M) was ≤ 0.5 μg/mL and ≤ 0.4 μM, the “times more prone to select resistant mutants than SET-M33L” value [2] was “at least 500” and the mortality (BALB/c mice; after 24 hours) was 70%. The mortality (BALB/c mice; immediately after inoculation) was 50%, the sudden death (BALB/c mice; single i.v. dose 20 mg/Kg) was 100% and the sudden death (BALB/c mice; single i.v. dose 40 mg/Kg) was 100%.
